Where two headings read alike, the source gives them in different places.
Legend:
[1] = target: nAChR formed by the α7 subunit isoform (Rattus norvegicus, UniProt Q05941); experiment: biochemical; type: binding
[2] = target: T1, neuronal nicotinic receptors (α4β2 subtype high affinity site) (Rattus norvegicus, UniProt P09483+P12390); experiment: In vitro inhibition of 3H-epibatidin binding
T1 construct: The forebrain (÷cerebellum) from a male Wistar rat (150-250 g) is homogenized; from tissue; host or cells: rat forebrain (without cerebellum) membrane homogenate
Description: The high affinity binding site for ^3H-epibatidin is most certainly binding to the α4β2 subtype of nicotinic receptors. The identity of the low affinity site is still unknown; does it represent a second nicotinic receptor or a second site in the same receptor.
Tissue preparation: Preparations are performed at 0-4° C. unless otherwise indicated. The forebrain (÷cerebellum) from a male Wistar rat (150-250 g) is homogenized for 10-20 sec in 20 ml Tris, HCl (50 mM, pH 7.4) using an Ultra-Turrax homogenizer. The tissue suspension is centrifuged at 27,000×g for 10 min. The supernatant is discarded and the pellet is washed three times by centrifugation at 27,000×g for 10 min in 20 ml fresh buffer, and the final pellet is resuspended in fresh buffer (400 ml per g of original tissue) and used for binding assays.
Assay: Aliquots of 2.0 ml homogenate are added to 0.100 ml of test solution and 0.100 ml of ^3H-epibatidin (0.3 nM, final concentration), mixed and incubated for 60 min at room temperature. Non-specific binding is determined using (−)-nicotine (30 μM, final concentration). After incubation the samples are poured directly onto Whatman GF/C glass fibre filters (presoaked in 0.1% PEI for at least 20 min) under suction and immediately washed with 2×5 ml ice-cold buffer. The amount of radioactivity on the filters is determined by conventional liquid scintillation counting. Specific binding is total binding minus non-specific binding.

[3] = target: nAChRs comprised of α4 and β2 subunits (Rattus norvegicus, UniProt P09483+P12390); experiment: In vitro inhibition of 3H-cytisine binding
Description: The predominant subtype with high affinity for nicotine is comprised of α4 and β2 subunits. nAChRs of the latter type can selectively be labelled by the nicotine agonist ^3H-cytisine.
Tissue Preparation: Preparations are performed at 0-4° C. unless otherwise indicated. […] The homogenate is centrifuged at 27,000×g for 10 min. The supernatant is discarded and the pellet is resuspended in fresh buffer and centrifuged a second time. The final pellet is resuspended in fresh buffer (35 ml per g of original tissue) and used for binding assays.
Assay: Aliquots of 500 μl homogenate are added to 25 μl of test solution and 25 μl of ^3H-cytisine (1 nM, final concentration), mixed and incubated for 90 min at 2° C. Non-specific binding is determined using (−)-nicotine (100 μM, final concentration). After incubation the samples are added 5 ml of ice-cold buffer and poured directly onto Whatman GF/C glass fibre filters under suction and immediately washed with 2×5 ml ice-cold buffer. The amount of radioactivity on the filters is determined by conventional liquid scintillation counting. Specific binding is total binding minus non-specific binding.

[4] = relative to morphine; cited from earlier work
[5] = rat forebrain homogenate, 0.3 nM 3H-epibatidin, 60 min at room temperature, read-out: 3H-epibatidin IC50
[6] = rat cerebral cortex homogenate, 1 nM 3H-cytisine, 90 min at 2° C., read-out: 3H-cytisine IC50

Sequence of nAChR formed by the α7 subunit isoform (Q05941 23-502): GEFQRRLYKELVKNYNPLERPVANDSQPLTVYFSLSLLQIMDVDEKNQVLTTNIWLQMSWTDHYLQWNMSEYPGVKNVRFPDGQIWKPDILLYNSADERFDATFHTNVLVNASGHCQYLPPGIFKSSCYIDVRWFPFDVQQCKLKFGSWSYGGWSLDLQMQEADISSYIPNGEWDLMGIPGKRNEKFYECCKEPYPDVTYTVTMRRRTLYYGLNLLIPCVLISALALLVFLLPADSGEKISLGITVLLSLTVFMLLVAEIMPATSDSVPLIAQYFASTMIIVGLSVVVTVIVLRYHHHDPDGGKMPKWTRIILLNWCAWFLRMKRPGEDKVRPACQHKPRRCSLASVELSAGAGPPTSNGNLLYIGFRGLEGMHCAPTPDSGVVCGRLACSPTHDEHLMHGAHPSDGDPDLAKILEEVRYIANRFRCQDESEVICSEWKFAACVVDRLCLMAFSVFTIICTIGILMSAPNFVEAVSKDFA
Sequence of nAChRs comprised of α4 and β2 subunits (P09483 31-630): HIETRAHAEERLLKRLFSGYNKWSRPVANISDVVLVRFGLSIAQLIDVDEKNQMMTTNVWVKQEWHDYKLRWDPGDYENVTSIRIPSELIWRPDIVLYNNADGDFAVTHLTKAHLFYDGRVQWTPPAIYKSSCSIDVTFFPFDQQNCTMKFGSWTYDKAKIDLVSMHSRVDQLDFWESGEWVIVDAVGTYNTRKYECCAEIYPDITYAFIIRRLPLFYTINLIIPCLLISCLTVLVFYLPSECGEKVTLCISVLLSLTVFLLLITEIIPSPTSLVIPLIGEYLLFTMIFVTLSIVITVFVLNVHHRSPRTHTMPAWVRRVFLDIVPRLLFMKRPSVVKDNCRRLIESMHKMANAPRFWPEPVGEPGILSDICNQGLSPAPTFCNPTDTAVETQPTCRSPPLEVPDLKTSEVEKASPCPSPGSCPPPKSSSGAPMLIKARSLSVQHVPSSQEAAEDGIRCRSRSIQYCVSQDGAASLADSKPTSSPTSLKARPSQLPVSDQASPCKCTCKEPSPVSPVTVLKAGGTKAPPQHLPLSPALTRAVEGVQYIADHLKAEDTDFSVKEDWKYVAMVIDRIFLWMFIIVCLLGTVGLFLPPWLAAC
Sequence of nAChRs comprised of α4 and β2 subunits (P12390 25-500): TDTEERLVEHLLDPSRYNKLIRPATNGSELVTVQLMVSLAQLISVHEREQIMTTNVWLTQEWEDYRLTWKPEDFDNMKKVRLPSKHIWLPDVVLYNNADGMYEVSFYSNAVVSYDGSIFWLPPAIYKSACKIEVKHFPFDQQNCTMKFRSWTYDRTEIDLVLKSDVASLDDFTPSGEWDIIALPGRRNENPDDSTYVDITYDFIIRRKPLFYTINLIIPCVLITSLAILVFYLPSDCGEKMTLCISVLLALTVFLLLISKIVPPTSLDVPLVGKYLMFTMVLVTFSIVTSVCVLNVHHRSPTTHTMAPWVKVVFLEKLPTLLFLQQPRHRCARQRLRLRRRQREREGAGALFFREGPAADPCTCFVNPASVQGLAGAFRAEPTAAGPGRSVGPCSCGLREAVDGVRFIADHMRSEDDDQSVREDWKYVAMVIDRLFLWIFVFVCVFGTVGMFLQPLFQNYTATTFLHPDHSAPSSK
T1 sequence (P09483 31-630): as the sequence (P09483 31-630) above
T1 sequence (P12390 25-500): as the sequence (P12390 25-500) above

| Structure (SMILES) | IC50 [1] [µM] | melting point [°C] | IC50 [2, 5] [µM] | IC50 [3] [µM] | IC50 [2] [µM] | IC50 [3, 6] [µM] | analgesic potency, times that of morphine [4] [times] |
| --- | --- | --- | --- | --- | --- | --- | --- |
| COc1cncc(N2CCN(C)CC2)c1 [Compound 3A, 4-Methyl-1-(5-methoxy-3-pyridyl)-piperazine] | 32.5 | 67.5 to 68 | 0.38 | 0.068 |  |  |  |
| CCCOc1cncc(N2CCCNCC2)c1 [Compound 10H, 1-(5-Propyloxy-3-pyridyl)-homopiperazine] | > 30 |  |  | 0.0009 | 0.0054 |  |  |
| CCCCCCOc1cncc(N2CCCN(C)CC2)c1 [Compound 11E, 1-(5-Hexyloxy-3-pyridyl)-4-methyl-homopiperazine] | > 30 |  |  |  | 0.25 | 0.8 |  |
| CC(C)CCOc1cncc(N2CCCN(C)CC2)c1 [Compound 12E, 4-Methyl-1-[5-(3-methyl-butoxy)-3-pyridyl]-homopiperazine] | > 30 |  | 0.27 | 0.055 |  |  |  |
| CN1CCCN(c2cncc(OCC3CCCCC3)c2)CC1 [Compound 14E, 1-(5-Cyclohexylmethoxy-3-pyridyl)-4-methyl-homopiperazine] | > 30 |  |  |  | 0.48 | 0.2 |  |
| CCCCCOc1cncc(N2CCCN(C)CC2)c1 [Compound 15E, 4-Methyl-1-(5-pentyloxy-3-pyridyl)-homopiperazine] | > 30 |  | 0.21 | 0.03 |  |  |  |
| CCCCCCCOc1cncc(N2CCCN(C)CC2)c1 [Compound 16E, 1-(5-Heptyloxy-3-pyridyl)-4-methyl-homopiperazine] | > 30 |  |  |  | 0.7 | 0.28 |  |
| C/C=C/Oc1cncc(N2CCCN(C)CC2)c1 [Compound 17E, trans-4-Methyl-1-(5-propyl-1-en-oxy-3-pyridyl)-homopiperazine] | > 30 |  |  | 0.02 | 0.09 |  |  |
| CN1CCCN(c2cncc(SCc3ccccc3)c2)CC1 [Compound 18E, 4-Methyl-1-(5-thiobenzyl-3-pyridyl)-homopiperazine] | 15 |  |  |  | 0.8 | 0.6 |  |
| CN1CCCN(c2cncc(-c3cccnc3)c2)CC1 [Compound 19E, 4-Methyl-1-[5-(3-pyridyl)-3-pyridyl]-homopiperazine] | > 30 |  |  |  | 1.8 | 0.17 |  |
| CN1CCCN(c2cncc(OC3CCCC3)c2)CC1 [Compound 25E, 1-(5-Cyclopentyloxy-3-pyridyl)-4-methyl-homopiperazine] | > 30 |  | 0.61 | 0.08 |  |  |  |
| Clc1ccc(C2CC3CCC2N3)cn1 (centres unmarked) [Epibatidine] |  |  |  |  |  |  | ~500 |

From patent publication US6897219B2, “Heteroaryl diazacycloalkanes, their preparation and use” (priority 1997, dated 2005)
